In PubChem BioAssay (NCI):
Values joined by “and” are separate entries in the source; they are usually repeats but may differ in a detail not shown here. Equal values may be shown once.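 The compound was tested at five concentrations on cells cultured in 96-well plates, with a 48-hour exposure period. Abbreviation: GI50, concentration required for 50% inhibition of growth. TGI: total growth inhibition.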 Active and inactive are the calls of the source. Rule as the data show it: active = GI50 below about 0.43 µM; inactive = the rest.

What was measured:
Test in all cases: NCI anticancer screen, dose series, 48 h
[1] = test system: 786-0 renal
[2] = test system: A498 renal
[3] = test system: A549 NSCLC
[4] = test system: ACHN renal
[5] = test system: CAKI-1 renal
[6] = test system: CCRF-CEM leukemia
[7] = test system: COLO 205 colon
[8] = test system: DMS 114 small cell lung
[9] = test system: DMS 273 small cell lung
[10] = test system: DU-145 prostate
[11] = test system: EKVX NSCLC
[12] = test system: HCC-2998 colon
[13] = test system: HCT-116 colon
[14] = test system: HCT-15 colon
[15] = test system: HL-60(TB) leukemia
[16] = test system: HOP-62 NSCLC
[17] = test system: HOP-92 NSCLC
[18] = test system: HS 578T breast
[19] = test system: HT29 colon
[20] = test system: IGROV1 ovarian
[21] = test system: K-562 leukemia
[22] = test system: KM12 colon
[23] = test system: LOX IMVI melanoma
[24] = test system: LXFL 529 NSCLC
[25] = test system: M14 melanoma
[26] = test system: MALME-3M melanoma
[27] = test system: MDA-MB-231 breast
[28] = test system: MDA-MB-435
[29] = test system: MDA-N
[30] = test system: MOLT-4 leukemia
[31] = test system: NCI-H226 lung
[32] = test system: NCI-H23 lung
[33] = test system: NCI-H460 lung
[34] = test system: NCI-H522 lung
[35] = test system: NCI/ADR-RES ovarian
[36] = test system: OVCAR-3 ovarian
[37] = test system: OVCAR-4 ovarian
[38] = test system: OVCAR-5 ovarian
[39] = test system: OVCAR-8 ovarian
[40] = test system: PC-3 prostate
[41] = test system: RPMI-8226 leukemia
[42] = test system: RXF 393 renal
[43] = test system: SF-268 CNS
[44] = test system: SF-295 CNS
[45] = test system: SF-539 CNS
[46] = test system: SK-MEL-2 melanoma
[47] = test system: SK-MEL-28 melanoma
[48] = test system: SK-MEL-5 melanoma
[49] = test system: SK-OV-3 ovarian
[50] = test system: SN12C renal
[51] = test system: SNB-19 CNS
[52] = test system: SNB-75 CNS
[53] = test system: SNB-78 CNS
[54] = test system: SR leukemia
[55] = test system: SW-620 colon
[56] = test system: T-47D breast
[57] = test system: TK-10 renal
[58] = test system: U251 CNS
[59] = test system: UACC-257 melanoma
[60] = test system: UACC-62 melanoma
[61] = test system: UO-31 renal
[62] = test system: DLD-1 colon
[63] = test system: KM20L2 colon
[64] = test system: M19-MEL melanoma
[65] = test system: MCF7 breast

CC(=O)NC1C(OCc2ccccc2)OC(CO)C(O)C1OC(C)C(=O)NC(C)C(=O)N[C@@H](CCC(=O)OCCCNC1c2ccccc2Nc2cccc([N+](=O)[O-])c21)C(N)=O (some centres not stated)
GI50 [1]: 6.74 nM | TGI [1]: 30.6 nM | TGI [2]: 20 nM | GI50 [3]: 30.6 nM | TGI [4]: 46.5 nM and < 40.7 nM | GI50 [5]: 28 nM | TGI [5]: 102 nM and 16.3 nM | GI50 [6]: 44.4 nM and 24.9 nM | TGI [6]: 422 nM and 1200 nM | GI50 [7]: 13.4 nM | TGI [7]: 27.4 nM | TGI [8]: 21.5 nM | TGI [9]: < 10.6 nM | TGI [10]: 79.9 nM | TGI [11]: 33.4 nM and 35.6 nM | GI50 [12]: 16.4 nM | TGI [12]: 32.2 nM | GI50 [13]: 3.01 nM | TGI [13]: 24.2 nM and < 11.6 nM | TGI [14]: 24.5 nM | GI50 [15]: 21.1 nM | TGI [15]: 125 nM and 39.8 nM | GI50 [16]: 23.4 nM | GI50 [17]: 15.9 nM | TGI [17]: 43.4 nM and 27 nM | TGI [18]: 72.5 nM | GI50 [19]: 5.83 nM | TGI [19]: 29.5 nM and 10.2 nM | GI50 [20]: 51.4 nM | TGI [20]: 267 nM and 86.1 nM | TGI [21]: 14.1 nM | GI50 [22]: 21.1 nM | TGI [22]: 51.6 nM and < 10.7 nM | GI50 [23]: 181 nM | TGI [23]: 441 nM and 103 nM | TGI [24]: < 23.2 nM | GI50 [25]: 20.1 nM | TGI [25]: 48.5 nM | GI50 [26]: 15.7 nM | TGI [26]: 32.4 nM | TGI [27]: 74 nM | TGI [28]: 30.9 nM | TGI [29]: 31.7 nM | GI50 [30]: 40.6 nM | TGI [30]: 425 nM and 48.6 nM | GI50 [31]: 14.7 nM | TGI [31]: 45.5 nM and < 15.1 nM | TGI [32]: 29.5 nM | GI50 [33]: 1.38 nM | TGI [33]: 14 nM and 13 nM | GI50 [34]: 13.8 nM | TGI [34]: 40.5 nM and < 15.1 nM | TGI [35]: 54.5 nM | GI50 [36]: 27.2 nM | TGI [36]: 94.5 nM and 10.2 nM | GI50 [37]: 31.4 nM | TGI [37]: 140 nM and < 18 nM | GI50 [38]: 10.5 nM | TGI [38]: 73.7 nM and 48.8 nM | GI50 [39]: 20 nM | TGI [39]: 76.5 nM and 34.7 nM | TGI [40]: 141 nM | TGI [41]: < 17.4 nM | TGI [42]: 32 nM | GI50 [43]: 19.5 nM | TGI [43]: 63.9 nM and 51.2 nM | GI50 [44]: 67.7 nM | TGI [44]: 433 nM and 59.6 nM | GI50 [45]: 29.7 nM | TGI [45]: 110 nM and 16.7 nM | GI50 [46]: 22.1 nM | TGI [46]: 53.2 nM | GI50 [47]: 27 nM | TGI [47]: 64.3 nM and 15.5 nM | GI50 [48]: 20 nM | TGI [48]: 53.8 nM and 15.2 nM | GI50 [49]: 147 nM | TGI [49]: 644 nM and 96.5 nM | GI50 [50]: 17.8 nM | TGI [50]: 97.5 nM and < 12.2 nM | GI50 [51]: 30.3 nM | TGI [51]: 211 nM and 58.4 nM | GI50 [52]: 28.4 nM | TGI [52]: 145 nM and 48 nM | TGI [53]: 40.7 nM | GI50 [54]: 0.3 nM | TGI [54]: 9.48 nM and 22.1 nM | GI50 [55]: 1.35 nM | TGI [55]: 17 nM and 55.7 nM | TGI [56]: 669 nM | TGI [57]: 30.1 nM | GI50 [58]: 13.8 nM | TGI [58]: 49.7 nM and 15.9 nM | TGI [59]: 15.9 nM | TGI [60]: < 11.2 nM | TGI [61]: 38.4 nM

Nc1ncnc2c1ncn2C1CC(O)C(CO)O1 (configuration not stated)
TGI [1]: > 100000 nM | TGI [2]: > 100000 nM | TGI [3]: > 100000 nM | TGI [4]: > 100000 nM | TGI [5]: > 100000 nM | TGI [6]: > 100000 nM | TGI [7]: > 100000 nM | TGI [62]: > 100000 nM | TGI [8]: > 100000 nM | TGI [9]: > 100000 nM | TGI [10]: > 100000 nM | TGI [11]: > 100000 nM | TGI [12]: > 100000 nM | TGI [13]: > 100000 nM | TGI [14]: > 100000 nM | TGI [15]: > 100000 nM | TGI [16]: > 100000 nM | TGI [17]: > 100000 nM | TGI [19]: > 100000 nM | TGI [20]: > 100000 nM | TGI [21]: > 100000 nM | TGI [22]: > 100000 nM | TGI [63]: > 100000 nM | TGI [23]: > 100000 nM | TGI [24]: > 100000 nM | TGI [25]: > 100000 nM | TGI [64]: > 100000 nM | TGI [26]: > 100000 nM | TGI [65]: > 100000 nM | TGI [27]: > 100000 nM | TGI [28]: > 100000 nM | TGI [29]: > 100000 nM | TGI [30]: > 100000 nM | TGI [31]: > 100000 nM | TGI [32]: > 100000 nM | TGI [33]: > 100000 nM | TGI [34]: > 100000 nM | TGI [35]: > 100000 nM | TGI [36]: > 100000 nM | TGI [37]: > 100000 nM | TGI [38]: > 100000 nM | TGI [39]: > 100000 nM | TGI [40]: > 100000 nM | TGI [41]: > 100000 nM | TGI [42]: > 100000 nM | TGI [43]: > 100000 nM | TGI [44]: > 100000 nM | TGI [45]: > 100000 nM | TGI [46]: > 100000 nM | TGI [47]: > 100000 nM | TGI [48]: > 100000 nM | TGI [49]: > 100000 nM | TGI [50]: > 100000 nM | TGI [51]: > 100000 nM | TGI [52]: > 100000 nM | TGI [53]: > 100000 nM | TGI [54]: > 100000 nM | TGI [55]: > 100000 nM | TGI [56]: > 100000 nM | TGI [57]: > 100000 nM | TGI [58]: > 100000 nM | TGI [59]: > 100000 nM | TGI [60]: > 100000 nM | TGI [61]: > 100000 nM

O=C1CC2CC(O1)[C@H]1O[C@H]1C2 (some centres not stated)
outcome [1]: inactive | outcome [3]: inactive | outcome [4]: inactive | outcome [5]: inactive | outcome [6]: inactive | outcome [7]: inactive | outcome [62]: inactive | outcome [8]: inactive | outcome [9]: inactive | outcome [11]: inactive | outcome [12]: inactive | outcome [13]: inactive | outcome [14]: inactive | outcome [15]: inactive | outcome [16]: inactive | outcome [17]: inactive | outcome [19]: inactive | outcome [20]: inactive | outcome [21]: inactive | outcome [22]: inactive | outcome [63]: inactive | outcome [23]: inactive | outcome [24]: inactive | outcome [25]: inactive | outcome [64]: inactive | outcome [26]: inactive | outcome [30]: inactive | outcome [31]: inactive | outcome [32]: inactive | outcome [33]: inactive | outcome [34]: inactive | outcome [36]: inactive | outcome [37]: inactive | outcome [38]: inactive | outcome [39]: inactive | outcome [41]: inactive | outcome [42]: inactive | outcome [43]: inactive | outcome [44]: inactive | outcome [45]: inactive | outcome [46]: inactive | outcome [49]: inactive | outcome [50]: inactive | outcome [51]: inactive | outcome [52]: inactive | outcome [53]: inactive | outcome [54]: inactive | outcome [55]: inactive | outcome [58]: inactive | outcome [59]: inactive | outcome [60]: inactive | outcome [61]: inactive
